The values that follow come from ChEMBL document CHEMBL5614367, “Hydroxamic acid hybrids: Histone deacetylase inhibitors with anticancer therapeutic potency” (Eur J Med Chem, 2023).

SMILES strings stand for the structures.

The test system of assay [1] is U-266. In words: Antiproliferative activity against human U-266 cells measured after 72 hrs by CCK-8 assay. The format is functional, cell-based. To be noted: U-266, 72 h, pooled result: one value given for 9 cell lines, strains, targets or settings. A general note: Formazan colour is commonly taken as a measure of viable cells.
Assay [2] concerns K562. In words: Antiproliferative activity against human K562 cells measured after 72 hrs by CCK-8 assay. The format is functional, cell-based. To be noted: K562, 72 h.
For assay [3], the system named is A20. In words: Antitumor activity against mouse A20 cells implanted in mouse assessed as tumor weight inhibition at 15 mg/kg, ip measured after 12 days relative to control. To be noted: A20, 288 h, time 12 day. The format is functional.
Assay [4] relates to EL4. In words: Antitumor activity against mouse EL4 cells implanted in mouse assessed as tumor weight inhibition at 15 mg/kg, ip measured after 12 days relative to control. It counts as functional. The following applies: EL4, 288 h, time 12 day.
For assay [5], the system named is K562. Kind of assay: cells. It counts as functional, cell-based. The following applies: Homo sapiens, K562, 72 h; pooled result: one value given for 11 cell lines, strains, targets or settings.
Assay [6] concerns the target Histone deacetylase 2 (Homo sapiens, UniProt Q92769). In words: Inhibition of HDAC2 (unknown origin).
The test system of assay [7] is HCT-116. Kind of assay: Antitumor activity against human HCT-116 cells xenografted in mouse assessed as tumor weight inhibition at 30 to 150 mg/kg, ip relative to control. The format is functional. The following applies: dose 30-150 mg/kg.
Assay [8] relates to HGC-27. In words: Antitumor activity against human HGC-27 cells xenografted in mouse assessed as tumor weight inhibition at 30 to 150 mg/kg, ip relative to control. The format is functional. To be noted: dose 30-150 mg/kg.
Assay [9] deals with T1, Histone deacetylase 8 (Homo sapiens, UniProt Q9BY41).
T1 sequence (Q9BY41 whole entry): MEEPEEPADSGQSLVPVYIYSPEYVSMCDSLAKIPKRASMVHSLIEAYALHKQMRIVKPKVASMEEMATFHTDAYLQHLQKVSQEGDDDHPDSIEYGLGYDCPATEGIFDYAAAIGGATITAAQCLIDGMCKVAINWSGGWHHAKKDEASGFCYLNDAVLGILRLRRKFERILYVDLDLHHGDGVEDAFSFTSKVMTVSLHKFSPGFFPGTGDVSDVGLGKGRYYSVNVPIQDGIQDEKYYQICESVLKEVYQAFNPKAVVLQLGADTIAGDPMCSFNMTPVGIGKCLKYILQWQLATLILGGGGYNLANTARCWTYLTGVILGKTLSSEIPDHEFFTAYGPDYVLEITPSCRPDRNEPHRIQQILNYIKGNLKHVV
Kind of assay: Inhibition of HDAC8 (unknown origin).

Chain of Histone deacetylase 2 (Q92769 whole entry): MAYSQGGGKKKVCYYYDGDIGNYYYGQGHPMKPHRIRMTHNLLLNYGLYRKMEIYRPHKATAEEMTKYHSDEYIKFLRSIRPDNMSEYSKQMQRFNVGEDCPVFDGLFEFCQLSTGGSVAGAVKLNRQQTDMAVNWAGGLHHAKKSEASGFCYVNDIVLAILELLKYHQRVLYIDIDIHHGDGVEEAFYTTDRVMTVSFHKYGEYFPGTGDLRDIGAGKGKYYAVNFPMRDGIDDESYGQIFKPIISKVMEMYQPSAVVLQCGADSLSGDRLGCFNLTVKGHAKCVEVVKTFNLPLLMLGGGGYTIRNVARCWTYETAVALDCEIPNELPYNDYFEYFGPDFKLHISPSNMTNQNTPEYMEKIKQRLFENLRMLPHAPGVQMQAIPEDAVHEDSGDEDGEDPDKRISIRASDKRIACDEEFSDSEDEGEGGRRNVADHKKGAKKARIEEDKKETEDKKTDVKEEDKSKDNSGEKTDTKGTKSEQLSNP

In the case of `O=C(NO)c1ccc(N2CCN(C(=O)c3cc(-c4ccc(-c5ccccc5)cc4)nc4ccccc34)CC2)cc1`, the IC50 in assay [1] and in assay [2] was 1080 nM throughout.
Consider `COc1ncc(-c2cc(OCCCCCCC(=O)NO)c3ncnc(C)c3c2)cc1F`, for which the figures for the inhibition in vivo at 15 mg/kg in assay [3] and in assay [4] were 60% and 78.1%, respectively. Moreover, the IC50 (in general, the midpoint of a concentration-inhibition curve) in assay [5] came out at 23 nM; in [6], 1.4 nM; in assay [9] it was 1.4 nM. Moreover, the “inhibition (INH)” value in assay [7] came to 45.8%; in [8], 62.6%.
